Experimental data from patent US20260216354A1, “ANTI-CMET ANTIBODY, ANTIBODY-DRUG CONJUGATE, AND PREPARATION METHOD THEREFOR AND USE THEREOF” (MEDILINK THERAPEUTICS (SUZHOU) CO., LTD., priority 2022, published 2026).

What was measured:
[1] = system: human colorectal adenocarcinoma NCI-H716 cell lines; experiment: In-vivo efficacy in NCI-H716 CDX models; parameters: species or system mouse; details: i.v., QW*3, NCI-H716 CDX
Description: (§1) To verify the in-vivo efficacy of the anti-human cMet ADC drugs and evaluate the anti-tumor effects of the tested drugs in female Balb/c Nude mouse models subjected to subcutaneous xenografts, 5-6 week old female Balb/c Nude mice (Vital River) are purchased, human non-small cell lung cancer NCI-H358 cells that have grown to the logarithmic growth phase are digested with EDTA and then resuspended with PBS, each mouse is subcutaneously inoculated with 5*10^6 cells, and when the tumor grows to a size of […], intravenous administration is performed once a week with 1 mg/kg or 3 mg/kg each time.
A similar method is used to evaluate the anti-tumor effects of cMet ADC test drugs in female BALB/c nude mouse animal models subjected to subcutaneous xenografts of human colorectal adenocarcinoma NCI-H716 cell lines.

SW480 cells = experiment: In-vitro killing activity Test 1 (CCK8), SW480; format: cell-based, human; details: 7 days, read-out: EC50 of ADC killing (nM) SW480
Description: (§2) Tumor cells in a good growth status are collected by digestion and centrifugation, SW480 (purchased from ATCC, Cat. No. CCL-228), NCI-H358 (purchased from ATCC, Cat. No. CRL-5807), LS1034 cells (Nanjing Cobioer Biosciences Co., Ltd., Cat. No. CBP60013), NCI-H716 (purchased from ATCC, Cat. No. CCL-251) cells are directly collected by centrifugation, the foregoing cells are all resuspended with RPMI 1640+5% FBS+Ps, and are counted, and 5000 (LS1034 and NCI-H716) or 3000 (SW480 and NCI-H358) cells are plated in each well in a volume of 100 uL; ADCs to be tested are diluted separately with resuspension media corresponding to the foregoing 3 types of cells, starting at 300 µg/mL ([…]) for 3-fold dilution with 11 concentration points, and added into a plate with 100 µL/well, to make the ADCs have a final concentration of 150 µg/mL, for incubation at 37° C. for 5 days (LS1034 and NCI-H358) or 7 days (NCI-H716 and SW480); after the incubation is completed, CCK8 is added with 20 µL/well, for a reaction for 1-3 hours; and values are read out at 450 nm by a microplate reader and imported into Graphpad Prism for curve-fitting.

[2] = system: human colon cancer SW480 cell lines; experiment: In-vivo efficacy in SW480 CDX models; parameters: species or system mouse; details: 5 mg/kg, i.v., QW*2, SW480 CDX
Description: as §1
A similar method is used to evaluate the anti-tumor effects of anti-cMet ADC test drugs in female BALB/c nude mouse animal models subjected to subcutaneous xenografts of human colon cancer SW480 cell lines.

NCI-H716 cells [3] = experiment: In-vitro killing activity Test 1 (CCK8), NCI-H716; format: cell-based, human; details: 7 days, read-out: EC50 of ADC killing (nM) NCI-H716
Description: as §2

NCI-H716 cells [4] = experiment: Flow cell affinity of ADCs, NCI-H716; format: binding, human; details: flow cytometry
NCI-H358 cells [5] = experiment: Flow cell affinity of ADCs, NCI-H358; format: binding, human; details: flow cytometry
h.cMet-ECD-His [6] = target: T1, h.cMet-ECD-His (Homo sapiens, UniProt P08581); experiment: ELISA protein affinity of cMET antibodies before and after conjugating into ADCs; format: binding
T1 construct: a human cMet ectodomain recombinant protein (Human HGF R/c-MET Protein, His Tag); purchased Acrobiosystems Co., Ltd. / ACRO Biosystems MET-H5227
T1 sequence (P08581 25-932 limits assumed): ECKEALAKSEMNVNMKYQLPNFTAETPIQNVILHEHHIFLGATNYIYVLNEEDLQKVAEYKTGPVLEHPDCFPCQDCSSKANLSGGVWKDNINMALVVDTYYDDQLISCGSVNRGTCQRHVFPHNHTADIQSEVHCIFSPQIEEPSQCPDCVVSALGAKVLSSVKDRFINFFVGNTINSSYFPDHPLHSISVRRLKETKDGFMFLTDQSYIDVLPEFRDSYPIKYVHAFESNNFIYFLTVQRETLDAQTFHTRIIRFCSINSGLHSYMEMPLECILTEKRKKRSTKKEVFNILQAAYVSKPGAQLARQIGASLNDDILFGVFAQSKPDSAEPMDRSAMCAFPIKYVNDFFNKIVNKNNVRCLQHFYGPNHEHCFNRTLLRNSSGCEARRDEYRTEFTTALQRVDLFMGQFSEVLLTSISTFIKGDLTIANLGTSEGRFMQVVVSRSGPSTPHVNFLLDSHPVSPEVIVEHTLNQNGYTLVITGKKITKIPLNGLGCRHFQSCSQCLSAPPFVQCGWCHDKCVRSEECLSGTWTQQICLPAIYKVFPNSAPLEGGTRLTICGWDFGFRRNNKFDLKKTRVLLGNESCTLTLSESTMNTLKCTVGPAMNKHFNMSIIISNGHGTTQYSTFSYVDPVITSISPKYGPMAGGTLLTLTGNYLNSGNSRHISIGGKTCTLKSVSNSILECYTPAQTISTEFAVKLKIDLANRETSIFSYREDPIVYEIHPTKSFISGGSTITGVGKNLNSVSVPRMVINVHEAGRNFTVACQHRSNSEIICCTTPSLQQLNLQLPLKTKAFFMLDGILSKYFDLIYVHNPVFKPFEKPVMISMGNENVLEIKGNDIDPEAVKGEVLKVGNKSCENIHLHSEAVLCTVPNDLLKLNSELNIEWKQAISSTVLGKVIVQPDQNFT
Experimental: Proteins anti-His-Rabbit Fc are coated with the CBS to […], and are blocked with 2% BSA (in PBS) at 37° C. for 2 hours, h.cMet-ECD-His of […] is added for incubation at 37° C. for 2 hours, after 2 hours, antibodies to be tested or ADCs that are gradiently diluted (starting at […] for 3-fold dilution with 11 concentration points) are added for incubation at 37° C. for 2 hours, after 2 hours, HRP-labeled anti-human specific secondary antibodies (Jackson, 115-035-164) are added for incubation at 37° C. for 1 hour, a TMB substrate is added for color development, and after the color development is stopped using HCl of 2M, final products are added into a machine to read out absorbance values at […].

NCI-H358 cells [7] = experiment: In-vitro killing activity Test 1 (CCK8), NCI-H358; format: cell-based, human; details: 5 days, read-out: EC50 of ADC killing (nM) NCI-H358
Description: as §2

[8] = system: human non-small cell lung cancer NCI-H358 cells; experiment: In-vivo efficacy in NCI-H358 CDX models (Test 1); parameters: species or system mouse; details: 1 mg/kg, i.v., QW*3, NCI-H358 CDX
Description: as §1

LS1034 cells [9] = experiment: Flow cell affinity of ADCs, LS1034; format: binding, human; details: flow cytometry
LS1034 cells [10] = experiment: In-vitro killing activity Test 1 (CCK8), LS1034; format: cell-based, human; details: 5 days, read-out: EC50 of ADC killing (nM) LS1034
Description: as §2

NCI-H69 cells = experiment: Flow cell affinity of ADCs, NCI-H69; format: binding, human; details: flow cytometry
MKN45 cells [11] = experiment: Flow affinity of humanized antibodies to MKN45 cells; format: binding, human; details: flow cytometry
Experimental: MKN45 cells (Nanjing Cobioer Biosciences Co., Ltd., CBP60488) are collected by trypsin digestion and centrifugation, and are washed three times with a pre-cooled PBS, the cells are resuspended with 1% BSA (in the PBS), and are plated into a 96-well conical bottom plate with 2^10^5 cells (50 ul) per well, anti-cMet humanized antibodies to be tested are gradiently diluted with 1% BSA starting at 20 μg/ml with a 4-fold dilution gradient and 8 concentration points, 50 ul diluted antibodies are mixed well with the cells in the conical bottom plate for incubation at 4° C. for 1 hour, after three times of washing with the pre-cooled PBS, 100 ul of 1% BSA (containing 1 uL anti-human APC fluorescent secondary antibodies, BioLegend, Cat. No. 410712) is added to each well for incubation at 4° C. for 0.5 hours, and after three times of washing with the pre-cooled PBS, the cells are resuspended for detection by a flow cytometer (Beckman, cytoflex).

[12] = system: cynoMet (cyno.cMet-ECD-His); experiment: ELISA affinity of humanized antibodies to cyno Met; format: binding; details: cyno.cMet-ECD-His captured
Description: […]

MKN45 cells [13] = experiment: Endocytic activity on MKN45 cells; format: cell-based, human; details: 10 μg/mL, 37° C.
Experimental: MKN45 cells are collected by trypsin digestion and centrifugation, incubated with humanized antibodies to be detected of a concentration of 10 μg/mL at 4° C. for 1 hour, and washed 3 times with the PBS, the cells are resuspended with DMEM+10% FBS that has been pre-warmed at 37° C., […], after 3 times of washing with a pre-cooled PBS, 1.2 uL of anti-human APC fluorescent secondary antibodies are added for incubation at 4° C. for 0.5 hours, and after three times of washing with the PBS, the cells are resuspended and added into a machine. Endocytosis rates are calculated according to the following formula: endocytosis rate (%)= ? 1−(an average fluorescence value of a test sample at this time point−an average fluorescence value of a negative control sample at this time point)/(an average fluorescence value of the test sample at 0 hour−an average fluorescence value of the negative control sample at 0 hour) ? * 100.

h.cMet (cMet-ECD-his) = target: T2, h.cMet (cMet-ECD-his) (Homo sapiens, UniProt P08581); experiment: ELISA affinity of humanized antibodies to human cMet; format: binding; details: cMet-ECD-his coated
T2 construct: a human cMet ectodomain recombinant protein (Human HGF R/c-MET Protein, His Tag); purchased Acrobiosystems Co., Ltd. / ACRO Biosystems MET-H5227
T2 sequence (P08581 25-932 limits assumed): as above
Description: […]

h.cMet-ECD-His [14] = target: T1, h.cMet-ECD-His; experiment: ForteBio dynamic affinity to h.cMet-ECD-His; format: binding; details: ProA sensor
Experimental: Dynamic affinities of the humanized antibodies are assayed through ForteBio. Experimental steps are as follows: 1. sensor preparation: taking out a ProA sensor, and pre-wetting the sensor with a PBST diluent (pH 7.4) for 10 min; 2. sample dilution: separately diluting antibodies that need to be solidified to 5 μg/ml, antigens h.cMet-ECD-His (Acrobiosystems Co., Ltd., Cat. No.: MET-H5227) starting at 500 nM for 2-fold dilution with 5 concentration points and a 0 concentration point set; 3. setting a program, putting a sensor plate and a sample plate away, starting the program, and the sensor being regenerated with a glycine solution of 20 mM (pH 1.7); 4. using Octet analysis software to analyse data.

[15] = target: T3, HGF ligand on MKN45 cells (Homo sapiens, UniProt P08581); experiment: FACS competition of humanized antibodies with HGF ligand on MKN45 cells; format: binding; details: HGF-His-biotin 50 ng/ml, MKN45
T3 construct: MKN45 cells expressing c-MET antigens; endogenous in cells; host or cells: MKN45
T3 sequence (P08581 25-1390): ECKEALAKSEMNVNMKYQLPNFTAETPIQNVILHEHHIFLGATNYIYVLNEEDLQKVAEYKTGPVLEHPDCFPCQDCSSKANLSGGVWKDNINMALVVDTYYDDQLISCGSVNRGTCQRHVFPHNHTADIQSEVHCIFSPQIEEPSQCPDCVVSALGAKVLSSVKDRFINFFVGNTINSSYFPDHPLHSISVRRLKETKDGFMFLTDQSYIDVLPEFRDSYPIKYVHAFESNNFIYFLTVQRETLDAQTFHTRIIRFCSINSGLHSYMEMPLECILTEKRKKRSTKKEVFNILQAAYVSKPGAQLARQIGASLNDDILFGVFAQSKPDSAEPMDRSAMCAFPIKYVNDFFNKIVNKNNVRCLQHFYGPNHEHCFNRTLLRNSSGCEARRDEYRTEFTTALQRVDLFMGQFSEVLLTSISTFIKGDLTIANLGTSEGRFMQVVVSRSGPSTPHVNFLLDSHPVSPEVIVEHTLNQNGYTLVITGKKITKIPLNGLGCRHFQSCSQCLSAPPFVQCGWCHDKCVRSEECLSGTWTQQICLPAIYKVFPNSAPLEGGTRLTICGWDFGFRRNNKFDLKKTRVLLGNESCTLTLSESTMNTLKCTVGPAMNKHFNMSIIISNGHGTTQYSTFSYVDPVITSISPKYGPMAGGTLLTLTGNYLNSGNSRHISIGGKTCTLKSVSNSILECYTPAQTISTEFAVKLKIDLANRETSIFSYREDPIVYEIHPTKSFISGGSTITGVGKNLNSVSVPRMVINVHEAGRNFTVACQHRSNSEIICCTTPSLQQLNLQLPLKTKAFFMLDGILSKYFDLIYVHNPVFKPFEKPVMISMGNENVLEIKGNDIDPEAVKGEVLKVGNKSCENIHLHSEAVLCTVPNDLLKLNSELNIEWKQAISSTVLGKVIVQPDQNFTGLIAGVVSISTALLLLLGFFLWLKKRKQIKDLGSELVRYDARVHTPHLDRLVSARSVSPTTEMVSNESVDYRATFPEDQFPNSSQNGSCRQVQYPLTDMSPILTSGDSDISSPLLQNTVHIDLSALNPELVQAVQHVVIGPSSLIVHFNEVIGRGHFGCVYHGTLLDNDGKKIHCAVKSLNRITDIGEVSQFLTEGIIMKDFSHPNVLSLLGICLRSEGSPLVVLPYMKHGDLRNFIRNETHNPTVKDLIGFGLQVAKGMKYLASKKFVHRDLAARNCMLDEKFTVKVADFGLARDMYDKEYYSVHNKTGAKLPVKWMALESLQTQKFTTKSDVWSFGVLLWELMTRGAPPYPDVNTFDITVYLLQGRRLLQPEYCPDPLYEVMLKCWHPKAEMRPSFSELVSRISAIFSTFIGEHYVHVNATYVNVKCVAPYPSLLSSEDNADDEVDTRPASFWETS
Experimental: (§3) Therefore, competitive actions of the humanized antibodies on ligand binding and actions of inhibiting HGF-induced ERK phosphorylation are detected.
(§4) MKN45 cells are collected by trypsin digestion and centrifugation, and are washed three times with a pre-cooled PBS, the cells are resuspended with 1% BSA (in PBS), and are plated into a 96-well conical bottom plate with 2^10^5 cells (50 ul) per well, anti-cMet humanized antibodies are gradiently diluted with 1% BSA, starting at 15 μg/ml to a final concentration from 5 μg/ml with a 3-fold dilution gradient and 8 dilution points, 50 ul diluted antibodies are mixed well with the cells in the conical bottom plate, HGF-His-biotin (from Chengdu NB Biolab Co., Ltd.) is diluted with 1% BSA to 150 ng/ml, and is added into the well plate with 50 ul/well, to make a final concentration of ligands of 50 ng/ml, for incubation at 4° C. for 1 hour after fully mixing, after three times of washing with the pre-cooled PBS, 100 ul of 1% BSA (containing 1 uL anti-biotin PE fluorescent secondary antibodies, BioLegend, Cat. No. 405204) is added to each well for incubation at 4° C. for 0.5 hours, and after three times of washing with the pre-cooled PBS, the cells are resuspended and detected by a flow cytometer (Beckman, cytoflex).

[16] = target: T4, (Homo sapiens, UniProt P08581); experiment: as above; format: binding; details: HGF-His-biotin 50 ng/ml
T4 construct: MKN45 cells expressing c-MET antigens; endogenous in cells; host or cells: MKN45
T4 sequence (P08581 25-1390): as above
Experimental: as §3, §4

ABT700-Vc-MMAE (DAR4): ADC of control antibody ABT700 conjugated to vc-MMAE (CAS No.: 646502-53-6), DAR value 4.0 [reference compound]
TGI (%) on Day 14 ([1]; 0.3 mg/kg): 1.7% | TGI (%) on Day 14 ([1]; 1 mg/kg): 3.5% | EC50 (SW480 cells): 71.6 nM | TGI (%) on Day 15 [2]: 15.06% | EC50 (NCI-H716 cells [3]): 288 nM | EC50 (NCI-H716 cells [4]): 11.6 nM | NCI-H716 Maximum signal value (NCI-H716 cells [4]): 3737

ABT700-Vc-MMAE (DAR9.7): ADC of control antibody ABT700 conjugated to vc-MMAE (CAS No.: 646502-53-6), DAR value 9.7 [reference compound]
EC50 (NCI-H358 cells [5]): 0.917 nM | NCI-H358 Maximum signal value (NCI-H358 cells [5]): 32386 | EC50 (h.cMet-ECD-His [6]): 2.432 µg/mL | EC50 (NCI-H358 cells [7]): > 10000 nM | TGI (%) on Day 14 [8]: 84.6% | EC50 (LS1034 cells [9]): 0.852 nM | LS1034 Maximum signal value (LS1034 cells [9]): 8960 | EC50 (LS1034 cells [10]): 53.7 nM | EC50 (NCI-H69 cells): 0.212 nM | NCI-H69 Maximum signal value (NCI-H69 cells): 8214

ABT700: control anti-c-Met antibody with a sequence from KEGG, ID: D11307 [reference compound]
EC50 (h.cMet-ECD-His [6]): 0.005257 µg/mL | MKN45 EC50 (MKN45 cells [11]): 0.1004 µg/mL | Maximum signal value (MKN45 cells [11]; MKN45): 70415 | cynoMet EC50 [12]: 0.1434 µg/mL | Endocytosis rate % (MKN45 cells [13]; 1 h): 7.9% | Endocytosis rate % (MKN45 cells [13]; 2 h): 19.2% | Endocytosis rate % (MKN45 cells [13]; 4 h): 44.5% | h.cMet EC50 (h.cMet (cMet-ECD-his)): 0.004148 µg/mL | ka (h.cMet-ECD-His [14]): 169000 M⁻¹ s⁻¹ | kdis (h.cMet-ECD-His [14]): 3.91e-07 s⁻¹ | Maximum inhibition rate % [15]: 75% | MKN45 IC50 [16]: 0.167 µg/mL
